According to patent US8362012B2, “Benzoxazine benzimidazole derivative, a pharmaceutical composition comprising the same, and a use thereof” (Daewoong Pharmaceutical Co., Ltd., priority 2008, dated 2013):

Columns and labels:
[1] = target: T1, human vanilloid-1 (hVR-1) in hVR-1-HEK293 cell line (Homo sapiens, UniProt Q8NER1); assay: Inhibitory effect on calcium influx via a vanilloid receptor (capsaicin-stimulated, Fluo-3/AM); type: cell-based; conditions: hVR-1-HEK293 cells, 1 μM of capsaicin, compounds 0.015˜2000 nM; read-out: I.A. (inhibitory activity), IC50 on intracellular calcium influx
T1 construct: expressed in transfected cells; host or cells: HEK293 Tet-on strain, doxycycline-induced
T1 sequence (Q8NER1 whole entry): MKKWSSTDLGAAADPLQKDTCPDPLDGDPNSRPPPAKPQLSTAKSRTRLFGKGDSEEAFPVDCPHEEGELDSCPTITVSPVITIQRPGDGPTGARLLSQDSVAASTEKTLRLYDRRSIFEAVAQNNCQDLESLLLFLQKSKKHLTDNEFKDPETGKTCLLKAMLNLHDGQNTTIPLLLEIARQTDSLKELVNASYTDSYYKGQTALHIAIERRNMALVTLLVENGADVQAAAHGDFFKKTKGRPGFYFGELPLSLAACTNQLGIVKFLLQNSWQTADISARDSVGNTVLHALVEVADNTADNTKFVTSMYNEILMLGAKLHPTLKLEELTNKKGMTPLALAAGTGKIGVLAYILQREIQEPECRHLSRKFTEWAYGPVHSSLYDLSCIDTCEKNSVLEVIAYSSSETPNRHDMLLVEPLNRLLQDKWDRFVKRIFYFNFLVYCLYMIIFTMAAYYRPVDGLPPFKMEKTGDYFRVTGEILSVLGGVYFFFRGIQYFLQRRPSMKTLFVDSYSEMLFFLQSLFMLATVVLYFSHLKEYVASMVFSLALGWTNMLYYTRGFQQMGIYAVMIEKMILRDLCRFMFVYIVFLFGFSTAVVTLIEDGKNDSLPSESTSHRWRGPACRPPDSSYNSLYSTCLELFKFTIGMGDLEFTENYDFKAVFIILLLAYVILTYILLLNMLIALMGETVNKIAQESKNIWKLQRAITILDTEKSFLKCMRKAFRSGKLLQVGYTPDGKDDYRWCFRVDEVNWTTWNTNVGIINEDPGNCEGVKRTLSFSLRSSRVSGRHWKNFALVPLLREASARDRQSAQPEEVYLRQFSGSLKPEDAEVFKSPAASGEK
Method in brief: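 Doxycycline-induced (1 μg/mL, 2 days) hVR-1-HEK293 cells loaded with Fluo-3/AM for 90 min at 37° C, then stimulated with 1 μM capsaicin. Calcium influx expressed as background-corrected fluorescence relative to positive control, analysed by Hill equation and graded by activity criteria.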

ICR male mice = assay: Phenyl-p-quinone (PBQ)-induced writhing experiment using mice; type: in vivo; conditions: orally administered, PBQ (0.02%) intraperitoneally after 1 hour, writhing counted for 10 min

IC50 [1] [nM]	SMILES	I.A. (inhibitory activity), % inhibition rate of writhing (ICR male mice)
< 20	CCc1ccc(N2c3cccc(-c4nc5c(F)cc(F)cc5[nH]4)c3OC[C@@H]2CO)nc1 [Example 86, [(S)-8-(4,6-difluoro-1H-benzimidazol-2-yl)-4-(5-ethyl-pyridin-2-yl)-3,4-dihydro-2H-benzo[1,4]oxazin-3-yl]-methanol]	+++ (51-80%)
< 20	CCc1ccc(N2c3cccc(-c4nc5ccc(C#N)cc5[nH]4)c3OC[C@@H]2CO)nc1 [Example 87, 2-[(S)-4-(5-ethyl-pyridin-2-yl)-3-hydroxymethyl-3,4-dihydro-2H-benzo[1,4]oxazin-8-yl]-3H-benzimidazol-5-carbonitrile]	+++ (51-80%)
< 20	COC[C@H]1COc2c(-c3nc4ccc(C(C)(C)C)cc4[nH]3)cccc2N1c1ccc(C)cn1 [Example 88, (S)-8-(6-tert-butyl-1H-benzimidazol-2-yl)-3-methoxymethyl-4-(5-methyl-pyridin-2-yl)-3,4-dihydro-2H-benzo[1,4]oxazine]	++ (20˜50%)
< 20	COC[C@H]1COc2c(-c3nc4ccc(Br)cc4[nH]3)cccc2N1c1ccc(C)cn1 [Example 89, (S)-8-(6-bromo-1H-benzimidazol-2-yl)-3-methoxymethyl-4-(5-methyl-pyridin-2-yl)-3,4-dihydro-2H-benzo[1,4]oxazine]	+++ (51-80%)
< 20	COC[C@H]1COc2c(-c3nc4ccc(C(F)(F)F)cc4[nH]3)cccc2N1c1ccc(C)cn1 [Example 90, (S)-3-methoxymethyl-4-(5-methyl-pyridin-2-yl)-8-(6-trifluoromethyl-1H-benzimidazol-2-yl)-3,4-dihydro-2H-benzo[1,4]oxazine]	+++ (51-80%)
< 20	COC[C@H]1COc2c(-c3nc4ccc(Cl)cc4[nH]3)cccc2N1c1ccc(C)cn1 [Example 91, (S)-3-methoxymethyl-4-(5-methyl-pyridin-2-yl)-8-(6-chloro-1H-benzimidazol-2-yl)-3,4-dihydro-2H-benzo[1,4]oxazine]	++ (20˜50%)
< 20	COC[C@H]1COc2c(-c3nc4c(Cl)cc(C(F)(F)F)cc4[nH]3)cccc2N1c1ccc(C)cn1 [Example 92, (S)-8-(4-chloro-6-trifluoromethyl-1H-benzimidazol-2-yl)-3-methoxymethyl-4-(5-methyl-pyridin-2-yl)-3,4-dihydro-2H-benzo[1,4]oxazine]	++ (20˜50%)
< 20	COC[C@H]1COc2c(-c3nc4c(Br)cc(C(F)(F)F)cc4[nH]3)cccc2N1c1ccc(C)cn1 [Example 93, (S)-8-(4-bromo-6-trifluoromethyl-1H-benzimidazol-2-yl)-3-methoxymethyl-4-(5-methyl-pyridin-2-yl)-3,4-dihydro-2H-benzo[1,4]oxazine]	++ (20˜50%)
< 20	COC[C@H]1COc2c(-c3nc4c(F)cc(Br)cc4[nH]3)cccc2N1c1ccc(C)cn1 [Example 94, (S)-8-(6-bromo-4-fluoro-1H-benzimidazol-2-yl)-3-methoxymethyl-4-(5-methyl-pyridin-2-yl)-3,4-dihydro-2H-benzo[1,4]oxazine]	+++ (51-80%)
< 20	COC[C@H]1COc2c(-c3nc4cc(Cl)c(Cl)cc4[nH]3)cccc2N1c1ccc(C)cn1 [Example 95, (S)-8-(5,6-dichloro-1H-benzimidazol-2-yl)-3-methoxymethyl-4-(5-methyl-pyridin-2-yl)-3,4-dihydro-2H-benzo[1,4]oxazine]	+++ (51-80%)
< 20	COC[C@H]1COc2c(-c3nc4c(C(F)(F)F)cc(C(F)(F)F)cc4[nH]3)cccc2N1c1ccc(C)cn1 [Example 96, (S)-8-(4,6-bis-trifluoromethyl-1H-benzimidazol-2-yl)-3-methoxymethyl-4-(5-methyl-pyridin-2-yl)-3,4-dihydro-2H-benzo[1,4]oxazine]	++++ (>80%)
< 20	COC[C@H]1COc2c(-c3nc4c(Br)cc(Br)cc4[nH]3)cccc2N1c1ccc(C)cn1 [Example 97, (S)-8-(4,6-dibromo-1H-benzimidazol-2-yl)-3-methoxymethyl-4-(5-methyl-pyridin-2-yl)-3,4-dihydro-2H-benzo[1,4]oxazine]	++ (20˜50%)
20 to 100	COC[C@H]1COc2c(-c3nc4ccc(F)cc4[nH]3)cccc2N1c1ccc(C)cn1 [Example 98, (S)-8-(6-fluoro-1H-benzimidazol-2-yl)-3-methoxymethyl-4-(5-methyl-pyridin-2-yl)-3,4-dihydro-2H-benzo[1,4]oxazine]	++ (20˜50%)
20 to 100	COC[C@H]1COc2c(-c3nc4ccc(OC(F)(F)F)cc4[nH]3)cccc2N1c1ccc(C)cn1 [Example 99, (S)-3-methoxymethyl-4-(5-methyl-pyridin-2-yl)-8-(6-trifluoromethoxy-1H-benzimidazol-2-yl)-3,4-dihydro-2H-benzo[1,4]oxazine]	++++ (>80%)
20 to 100	COC[C@H]1COc2c(-c3nc4ccc(C)c(C)c4[nH]3)cccc2N1c1ccc(C)cn1 [Example 100, (S)-8-(6,7-dimethyl-1H-benzimidazol-2-yl)-3-methoxymethyl-4-(5-methyl-pyridin-2-yl)-3,4-dihydro-2H-benzo[1,4]oxazine]	++ (20˜50%)
20 to 100	COC[C@H]1COc2c(-c3nc4ccc(C#N)cc4[nH]3)cccc2N1c1ccc(C)cn1 [Example 101, 2-[(S)-3-methoxymethyl-4-(5-methyl-pyridin-2-yl)-3,4-dihydro-2H-benzo[1,4]oxazin-8-yl]-3H-benzimidazol-5-carbonitrile]	+++ (51-80%)
< 20	COC[C@H]1COc2c(-c3nc4cc(F)c(F)cc4[nH]3)cccc2N1c1ccc(C)cn1 [Example 102, (S)-8-(5,6-difluoro-1H-benzimidazol-2-yl)-3-methoxymethyl-4-(5-methyl-pyridin-2-yl)-3,4-dihydro-2H-benzo[1,4]oxazine]	+++ (51-80%)
< 20	COC[C@H]1COc2c(-c3nc4cc(Cl)c(F)cc4[nH]3)cccc2N1c1ccc(C)cn1 [Example 103, (S)-8-(5-chloro-6-fluoro-1H-benzimidazol-2-yl)-3-methoxymethyl-4-(5-methyl-pyridin-2-yl)-3,4-dihydro-2H-benzo[1,4]oxazine]	+++ (51-80%)
< 20	COC[C@H]1COc2c(-c3nc4c(C)cc(Br)cc4[nH]3)cccc2N1c1ccc(C)cn1 [Example 104, (S)-8-(6-bromo-4-methyl-1H-benzimidazol-2-yl)-3-methoxymethyl-4-(5-methyl-pyridin-2-yl)-3,4-dihydro-2H-benzo[1,4]oxazine]	+++ (51-80%)
